Test results published in patent US10765754B2, “Compositions and methods related to inhibition of respiratory syncytial virus entry” (priority 2015, dated 2020).
Positions of bridges follow the written chain, without caps; N, C: chain ends. Non-standard residues stand in square brackets, D forms with d. Residues, ends and D or L forms follow the SMILES beside them.

molecular target: T1, RSV-B/IZN45 (Human respiratory syncytial virus B, UniProt O36634); assay: biochemical; type: binding; settings: synthesized peptide; RSV-B/IZN45; KD determined by SPR
T1 construct: N-trimer Mimics Synthesized; made in house; host or cells: chemical peptide synthesis
T1 sequence (O36634 163-207, added parts left off): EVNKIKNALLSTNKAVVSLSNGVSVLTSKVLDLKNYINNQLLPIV
Description: IZN45 N-trimer mimic comprises the IZ domain, a highly soluble, designed coiled-coil that helps solubilize the N-trimer, along with the C-terminal (bottom) 45 residues of the RSV N-trimer. IZN45 encompasses the full ordered portion of the N-trimer except for three N-terminal residues (removed to maintain a continuous heptad repeat with the IZ domain). The interactions between 35-residue RSV C-peptides, T108 and T118 (Lambert et al., 1996, Proc. Natl. Acad. Sci. USA 93:2186-2191), and IZN45 was examined by surface plasmon resonance (SPR). SPR is a gold standard assay to measure the kinetics and affinity of biological interactions. […] The Biotinylated L-form of RSV target IZN45 was captured onto one lane of a NeutrAvidin coated SPR chip. A mutant version of IZN45 containing four mutated residues along the N-trimer groove designed to disrupt binding (IZN45 Full Mut, negative control) was captured onto a separate lane of the NeutrAvidin chip. T118, corresponding to the C-terminal portion of the RSV F ectodomain, which is known to interact with the RSV N-trimer groove, was flowed over the various surfaces. […] The surfaces were regenerated with a detergent (0.1% SDS) after each injection of analyte. Various concentrations of T118 were measured in duplicate or triplicate injections. D-peptide interactions with IZN45 and IZN45-Full Mut surfaces were also measured using this method.
Peptides from the ‘winning’ phage clones from each library were synthesized as D-peptides. If solubility of the peptides was limited, N- or C-terminal charged residue(s) (e.g., lysine) were attached as necessary as previously described for HIV peptides in Eckert et al., 1999, Cell 99:103-15, incorporated by reference in its entirety. Binding affinity and kinetics of the D-peptide inhibitors to the IZN45 and IZN45 mutants was characterized by SPR (Biacore 3000), using methods as described in Welch et al., 2007, Proc. Natl. Acad. Sci. USA 104:16828-33, incorporated by reference in its entirety.

SMILES	Kd [µM]
CC(C)C[C@H]1NC(=O)[C@@H](CC(=O)O)NC(=O)[C@@H](Cc2c[nH]c3ccccc23)NC(=O)[C@@H]([C@H](C)O)NC(=O)[C@@H](Cc2c[nH]cn2)NC(=O)[C@H](NC(=O)[C@@H](C)NC(=O)CN)CSSC[C@H](C(=O)N[C@H](C)C(=O)N[C@H](C)C(=O)NCC(=O)N[C@H](CCCCN)C(N)=O)NC(=O)[C@@H](C(C)C)NC(=O)[C@@H](CC(=O)O)NC(=O)[C@@H](CC(C)C)NC(=O)[C@@H](Cc2c[nH]cn2)NC(=O)[C@@H](CC(N)=O)NC1=O [CX10C-86-GK] (H-G[dA][dC][dH][dT][dW][dD][dL][dN][dH][dL][dD][dV][dC][dA][dA]G[dK]-NH2; disulfide 3-14)	350
CC[C@@H](C)[C@@H](N)C(=O)N[C@H](CO)C(=O)N[C@H](CC(C)C)C(=O)N1CCC[C@@H]1C(=O)N[C@@H](C(=O)N1CCC[C@@H]1C(=O)N[C@@H](C(=O)N[C@H](Cc1c[nH]c2ccccc12)C(=O)N[C@H](Cc1c[nH]c2ccccc12)C(=O)N1CCC[C@@H]1C(=O)N[C@H](CO)C(=O)N[C@@H](C(=O)NCC(=O)N[C@H](CCCCN)C(N)=O)[C@H](C)O)[C@H](C)O)[C@H](C)O [X12-45-GK] (H-[dI][dS][dL][dP][dT][dP][dT][dW][dW][dP][dS][dT]G[dK]-NH2)	6
CC[C@@H](C)[C@@H](NC(=O)[C@H](NC(=O)[C@@H](CCCCN)NC(=O)[C@@H](CO)NC(C)=O)C(C)C)C(=O)N[C@H](CC(C)C)C(=O)N1CCC[C@@H]1C(=O)N[C@H](CCC(=O)O)C(=O)N1CCC[C@@H]1C(=O)N[C@H](Cc1ccccc1)C(=O)N[C@H](Cc1c[nH]c2ccccc12)C(=O)N[C@H](Cc1c[nH]c2ccccc12)C(=O)N1CCC[C@@H]1C(=O)NCC(=O)NCC(N)=O [Ac-X12-47-GG] (Ac-[dS][dK][dV][dI][dL][dP][dE][dP][dF][dW][dW][dP]GG-NH2)	15
CSCC[C@@H](NC(=O)[C@@H](Cc1c[nH]c2ccccc12)NC(=O)[C@@H](Cc1c[nH]c2ccccc12)NC(=O)[C@@H](Cc1ccc(O)cc1)NC(=O)[C@@H](CCCCN)NC(=O)[C@@H](CC(C)C)NC(=O)[C@H](N)CO)C(=O)N[C@H](CCC(=O)O)C(=O)N[C@H](CCC(=O)O)C(=O)N[C@H](CC(C)C)C(=O)N1CCC[C@@H]1C(=O)N[C@H](CC(C)C)C(=O)N1CCC[C@@H]1C(=O)N[C@H](CCCCN)C(=O)N[C@H](Cc1c[nH]c2ccccc12)C(=O)N[C@H](Cc1c[nH]c2ccccc12)C(N)=O [X16-18] (H-[dS][dL][dK][dY][dW][dW][dM][dE][dE][dL][dP][dL][dP][dK][dW][dW]-NH2)	16
CC[C@@H](C)[C@@H](NC(=O)[C@@H](CC(=O)O)NC(=O)[C@@H](CC(=O)O)NC(=O)[C@@H](Cc1c[nH]c2ccccc12)NC(=O)[C@@H](Cc1c[nH]c2ccccc12)NC(=O)[C@H]1CCCN1C(=O)[C@@H](CCC(N)=O)NC(=O)[C@@H](CC(C)C)NC(=O)[C@H]1CCCN1C(=O)[C@@H](CC(C)C)NC(=O)[C@@H](Cc1c[nH]c2ccccc12)NC(=O)[C@H](N)Cc1c[nH]cn1)C(=O)N1CCC[C@@H]1C(=O)N[C@@H](C(=O)N[C@H](Cc1c[nH]c2ccccc12)C(=O)N[C@H](Cc1c[nH]cn1)C(=O)NCC(=O)N[C@H](CCCCN)C(N)=O)C(C)C [X16-20-GK] (H-[dH][dW][dL][dP][dL][dQ][dP][dW][dW][dD][dD][dI][dP][dV][dW][dH]G[dK]-NH2)	2
CC[C@@H](C)[C@@H](NC(C)=O)C(=O)N[C@H](CO)C(=O)N[C@H](CC(C)C)C(=O)N1CCC[C@@H]1C(=O)N[C@@H](C(=O)N1CCC[C@@H]1C(=O)N[C@@H](C(=O)N[C@H](Cc1c[nH]c2ccccc12)C(=O)N[C@H](Cc1c[nH]c2ccccc12)C(=O)N1CCC[C@@H]1C(=O)N[C@H](CO)C(=O)N[C@@H](C(=O)NCC(=O)NCC(N)=O)[C@H](C)O)[C@H](C)O)[C@H](C)O [Ac-X12-45-GG] (Ac-[dI][dS][dL][dP][dT][dP][dT][dW][dW][dP][dS][dT]GG-NH2)	25
CC[C@@H](C)[C@H]1NC(=O)[C@@H](CCCCN)NC(=O)[C@H](NC(=O)[C@@H](C)NC(=O)CNC(C)=O)CSSC[C@H](C(=O)N[C@H](C)C(=O)N[C@H](C)C(N)=O)NC(=O)[C@@H](CC(=O)O)NC(=O)[C@@H](Cc2c[nH]cn2)NC(=O)[C@@H](Cc2c[nH]c3ccccc23)NC(=O)[C@@H](Cc2c[nH]cn2)NC(=O)[C@@H](Cc2ccccc2)NC(=O)[C@@H](CC(C)C)NC(=O)[C@@H](CC(=O)O)NC(=O)[C@@H](Cc2c[nH]cn2)NC1=O [Ac-CX10C-119] (Ac-G[dA][dC][dK][dI][dH][dD][dL][dF][dH][dW][dH][dD][dC][dA][dA]-NH2; disulfide 3-14)	280
CC[C@@H](C)[C@@H](NC(C)=O)C(=O)N[C@H](CO)C(=O)N[C@H](CC(C)C)C(=O)N1CCC[C@@H]1C(=O)N[C@@H](C(=O)N1CCC[C@@H]1C(=O)N[C@@H](C(=O)N[C@H](Cc1c[nH]c2ccccc12)C(=O)N[C@H](Cc1c[nH]c2ccccc12)C(=O)N1CCC[C@@H]1C(=O)N[C@H](CO)C(=O)N[C@@H](C(=O)NCC(=O)N[C@H](CCCCN)C(N)=O)[C@H](C)O)[C@H](C)O)[C@H](C)O [Ac-X12-45-GK] (Ac-[dI][dS][dL][dP][dT][dP][dT][dW][dW][dP][dS][dT]G[dK]-NH2)	23
CC[C@@H](C)[C@@H](NC(=O)[C@H](NC(=O)[C@@H](CCCCN)NC(=O)[C@H](N)CO)C(C)C)C(=O)N[C@H](CC(C)C)C(=O)N1CCC[C@@H]1C(=O)N[C@H](CCC(=O)O)C(=O)N1CCC[C@@H]1C(=O)N[C@H](Cc1ccccc1)C(=O)N[C@H](Cc1c[nH]c2ccccc12)C(=O)N[C@H](Cc1c[nH]c2ccccc12)C(=O)N1CCC[C@@H]1C(=O)NCC(=O)NCC(N)=O [X12-47-GG] (H-[dS][dK][dV][dI][dL][dP][dE][dP][dF][dW][dW][dP]GG-NH2)	17
CC[C@@H](C)[C@H]1NC(=O)[C@@H](CCCCN)NC(=O)[C@H](NC(=O)[C@@H](C)NC(=O)CN)CSSC[C@H](C(=O)N[C@H](C)C(=O)N[C@H](C)C(=O)NCC(=O)NCC(N)=O)NC(=O)[C@@H](CC(=O)O)NC(=O)[C@@H](Cc2c[nH]cn2)NC(=O)[C@@H](Cc2c[nH]c3ccccc23)NC(=O)[C@@H](Cc2c[nH]cn2)NC(=O)[C@@H](Cc2ccccc2)NC(=O)[C@@H](CC(C)C)NC(=O)[C@@H](CC(=O)O)NC(=O)[C@@H](Cc2c[nH]cn2)NC1=O [CX10C-119-GG] (H-G[dA][dC][dK][dI][dH][dD][dL][dF][dH][dW][dH][dD][dC][dA][dA]GG-NH2; disulfide 3-14)	130
CC[C@@H](C)[C@@H](N)C(=O)N[C@H](CO)C(=O)N[C@H](CC(C)C)C(=O)N1CCC[C@@H]1C(=O)N[C@@H](C(=O)N1CCC[C@@H]1C(=O)N[C@@H](C(=O)N[C@H](Cc1c[nH]c2ccccc12)C(=O)N[C@H](Cc1c[nH]c2ccccc12)C(=O)N1CCC[C@@H]1C(=O)N[C@H](CO)C(=O)N[C@@H](C(=O)NCC(=O)NCC(N)=O)[C@H](C)O)[C@H](C)O)[C@H](C)O [X12-45-GG] (H-[dI][dS][dL][dP][dT][dP][dT][dW][dW][dP][dS][dT]GG-NH2)	11
CSCC[C@@H](NC(=O)[C@@H](Cc1c[nH]c2ccccc12)NC(=O)[C@@H](Cc1c[nH]c2ccccc12)NC(=O)[C@@H](Cc1ccc(O)cc1)NC(=O)[C@@H](CCCCN)NC(=O)[C@@H](CC(C)C)NC(=O)[C@@H](CO)NC(C)=O)C(=O)N[C@H](CCC(=O)O)C(=O)N[C@H](CCC(=O)O)C(=O)N[C@H](CC(C)C)C(=O)N1CCC[C@@H]1C(=O)N[C@H](CC(C)C)C(=O)N1CCC[C@@H]1C(=O)N[C@H](CCCCN)C(=O)N[C@H](Cc1c[nH]c2ccccc12)C(=O)N[C@H](Cc1c[nH]c2ccccc12)C(N)=O [Ac-X16-18] (Ac-[dS][dL][dK][dY][dW][dW][dM][dE][dE][dL][dP][dL][dP][dK][dW][dW]-NH2)	11
CC[C@@H](C)[C@@H](NC(=O)[C@H](NC(=O)[C@@H](CCCCN)NC(=O)[C@H](N)CO)C(C)C)C(=O)N[C@H](CC(C)C)C(=O)N1CCC[C@@H]1C(=O)N[C@H](CCC(=O)O)C(=O)N1CCC[C@@H]1C(=O)N[C@H](Cc1ccccc1)C(=O)N[C@H](Cc1c[nH]c2ccccc12)C(=O)N[C@H](Cc1c[nH]c2ccccc12)C(=O)N1CCC[C@@H]1C(N)=O [X12-47] (H-[dS][dK][dV][dI][dL][dP][dE][dP][dF][dW][dW][dP]-NH2)	10
CC[C@@H](C)[C@H]1NC(=O)[C@@H](CCCCN)NC(=O)[C@H](NC(=O)[C@@H](C)NC(=O)CN)CSSC[C@H](C(=O)N[C@H](C)C(=O)N[C@H](C)C(N)=O)NC(=O)[C@@H](CC(=O)O)NC(=O)[C@@H](Cc2c[nH]cn2)NC(=O)[C@@H](Cc2c[nH]c3ccccc23)NC(=O)[C@@H](Cc2c[nH]cn2)NC(=O)[C@@H](Cc2ccccc2)NC(=O)[C@@H](CC(C)C)NC(=O)[C@@H](CC(=O)O)NC(=O)[C@@H](Cc2c[nH]cn2)NC1=O [CX10C-119] (H-G[dA][dC][dK][dI][dH][dD][dL][dF][dH][dW][dH][dD][dC][dA][dA]-NH2; disulfide 3-14)	100
